# In publication PMC10010335, “Depletion of Mannose Receptor–Positive Tumor-associated Macrophages via a Peptide-targeted Star-shaped Polyglutamate Inhibits Breast Cancer Progression in Mice” (Cancer Research Communications, 2022):
# Where a SMILES comes first, the peptide text is derived from it. Where no end group is shown, it is not given here. The star is where a group is joined. 5FAM = O=C1OC2(c3ccc(O)cc3Oc3cc(O)ccc32)c2ccc(C(=O)*)cc21; Ahx = NCCCCCC(=O)O
# How the values were obtained:
# [1] = test system: primary human M2-resembling (MCSF + IL4 polarized) macrophages; assay: In vitro cytotoxicity (MTT), M2-resembling macrophages; assay type: cell-based; details: 15-minute incubation at 33 and 100 μmol/L DOX, washed, 48 hours, N = 3 wells
# Method: Human peripheral blood mononuclear cells (PBMC) were purified from human blood buffy coat using Ficoll Paque Plus (GE Healthcare, catalog no. 17-1440-02) reagent and CD14^+ microbeads (MACS Miltenyi Biotec, catalog no. 130-050-201) as described previously ([42]). A total of 1.2 × 10^5 cells in 50 μL of RPMI1640 medium were seeded on an FBS-coated 96-well plate. To obtain optimal macrophage attachment and M2 resembling, 50 μL of IL4 (50 ng/mL, BioLegend, catalog no. 574002) and MCSF (50 ng/mL, BioLegend, catalog no. 574802) mixture was added to the wells. The medium was replenished by substituting half of the medium with fresh medium containing IL4 and MCSF every other day for 6 days. To obtain M1-resembling macrophages, monocytes were incubated with M-CSF (50 ng/mL) for 6 days, replenishing every other day with fresh medium containing MCSF and on day 6, 50 μL of MCSF, lipopolysaccharide (LPS, 100 ng/mL, Sigma-Aldrich, catalog no. L4391) and IFNγ (20 ng/mL, BioLegend, catalog no. 570202) was added and incubated overnight. […] After incubation, wells were washed, fresh medium added, and cells incubated for 48 hours at 37°C. […] Absorbance was read at 580 nm using a plate reader (Tecan Sunrise) and the corresponding Magellan 7 program. […] After that, cells were washed 2× with 200 μL of RB and read using BD Accuri 6 plus (BD Biosciences). […]
# [2] = test system: orthotopic TNBC (4T1 cells); assay: OximUNO treatment of orthotopic TNBC; assay type: in vivo, Balb/c mice
# Method: Two tumor models were used for treatment studies: the orthotopic TNBC model where 5 × 10^4 4T1 cells in 50 μL of PBS were injected subcutaneously into fourth mammary fat pad; and the experimental metastasis of TNBC model where 2 × 10^5 4T1-GFP cells in 100 μL of PBS were intravenously injected.
# A total of 5 × 10^4 4T1 cells in 50 μL of PBS were subcutaneously injected into the fourth mammary fat pad of 8–12 weeks old female Balb/c mice. On day 7, mice were sorted into four groups by tumor volume measured using a digital caliper (Mitutoyo). Tumor volume was calculated on the basis of the formula (W^2 × L)/2, where W is the tumor's width and L is the tumor's length. […] Mouse bodyweight and tumor volumes were monitored every other day. […] CD206 was detected using rat anti-mouse CD206 (dilution 1/200), CD8 using rat anti-mouse CD8 (dilution 1/75 BioLegend, catalog no. 100701), FOXP3 using rat anti-mouse FOXP3 (dilution 1/75, BioLegend, catalog no. 126401) as primary antibodies, Alexa Fluor goat anti-rat 647 (dilution 1/300 for CD206 and 1/200 for CD8, FOXP3,) was used as a secondary antibody for all markers. […]
# For H&E staining, 2-μm–thick sections were cut from paraffin-embedded blocks. […] Images were analyzed using the QuPath program (version 0.1.2; ref. [52]). […] Stained heart sections were also scanned using a slide scanner and analysed with the QuPath program. […]
# [3] = cited from earlier work
# Excerpt: On the basis of these ante ...
# [4] = same mice strain, sex, age; cited from earlier work
molecule,measurement,setting,value
"COc1cccc2c1C(=O)c1c(O)c3c(c(O)c1C2=O)C[C@@](O)(C(=O)CO)C[C@@H]3O[C@H]1C[C@H](N)[C@H](O)[C@H](C)O1 [DOX, doxorubicin]",toxicity (MTT cell viability),[1],only displayed toxicity in MCSF + IL4 polarized macrophages at 100 μmol/L
same,CD206 expression in primary tumor,"[2]; IF, compared with PBS",upregulated CD206 expression
same,mouse bodyweight,"[2]; i.p., 2 mg/kg of DOX every other day, nine injections",significant decrease in mouse bodyweight
C[C@H](NC(=O)CNC(=O)[C@@H]1CCCN1C(=O)[C@H](CO)NC(=O)[C@H](CS)NC(=O)CCCCCNC(=O)c1ccc2c(c1)C(=O)OC21c2ccc(O)cc2Oc2cc(O)ccc21)C(=O)N[C@@H](CCCCN)C(=O)O [FAM-mUNO] ({5FAM-Ahx}-CSPGAK-OH),"degradation of FAM coupled through an amide bond, in serum",[3],negligible degradation
CSPGAK-OH [mUNO],"half-life, intraperitoneal versus intravenous administration",[4],substantially longer half-life
